Assay results reported in PMC9603561, “Anticoagulants as Potential SARS-CoV-2 M^pro Inhibitors for COVID-19 Patients: In Vitro, Molecular Docking, Molecular Dynamics, DFT, and SAR Studies” (International Journal of Molecular Sciences, 2022).
Read-outs that look alike come from different tables or passages of the source.

Assays:
SARS-CoV-2 M^pro enzyme = molecular target: T1, SARS-CoV-2 M^pro enzyme (Severe acute respiratory syndrome coronavirus 2, UniProt P0DTD1); experiment: SARS-CoV-2 M^pro inhibitory assay (3CL Protease Assay Kit); type: biochemical
T1 construct: The 3CL Protease Assay Kit was used; purchased

[1] = tested on: SARS-CoV-2 (hCoV-19/Egypt/NRC-03/2020); experiment: Crystal violet assay, SARS-CoV-2 inhibitory assay (cell-based); details: Vero E6 cells, crystal violet CPE readout, read-out: Inhibitory Concentration (IC50) against SARS-CoV-2
MTT cytotoxicity assay = type: cell-based; details: African green monkey
Method: (§1) Half of the maximal cytotoxic concentrations (CC50) were assessed to obtain the exact concentration of a compound that caused a rupture to 50% of cells after being treated with variant doses from the compounds to calculate the safety index (SI) = CC50/IC50 for each compound. The assay was performed through stock solution preparation of the target compounds in DMSO/ddH2O (for those in powder form). However, those in solution form were used directly. The prepared solutions were further diluted with DMEM by attaining the working solutions. […] Shortly, 96 well-plates were utilized for cell seeding and incubated at 37 °C in 5% CO2 for 24 h afterward. After one day, the incubated cells were subjected to different concentrations in triplicates of the investigated compounds. After another 24 h, the supernatant was dismissed, and sterile 1x phosphate buffer saline (PBS) was used for cell monolayer washing in triplicates. Thus, 20 µL of 5 mg/mL stock solution was added to each well and then incubated at 37 °C, followed by a medium aspiration for 4 h. So, the formed formazan crystals were dissolved by 200 µL isopropyl alcohol or DMSO. The formazan solution absorbance was measured at 540 nm (λmax) using a multi-well plate reader, while the reference wavelength was 620 nm. The CC50 of each target compound was measured employing nonlinear regression analysis of GraphPad Prism software.

Vero E6 cells = experiment: MTT cytotoxicity assay; type: cell-based; details: Vero E6 cells, MTT, 24 h treatment; read-out: Cytotoxicity Concentration (CC50)
Method: as §1

[2] = fluorogenic substrate, triplicate
[3] = Severe acute respiratory syndrome coronavirus 2, Vero C1008, 72 h

Molecule	IC50 (SARS-CoV-2 M^pro enzyme; [2]) [µM]	IC50 [1, 3] [µM]	IC50 ([1]; 72 h) [µM]	CC50 at 24 h (MTT cytotoxicity assay; Vero E6 cells, MTT, 24 h treatment, read-out: Cytotoxicity Concentration (CC50)) [µM]	CC50 at 24 h (MTT cytotoxicity assay) [µM]	IC50 (SARS-CoV-2 M^pro enzyme; read-out: SARS-CoV-2 M^pro IC50, fluorogenic substrate, triplicate) [µM]	CC50 (Vero E6 cells) [µM]
[H]/N=C(/N)c1ccc(NCc2nc3cc(C(=O)N(CCC(=O)O)c4ccccn4)ccc3n2C)cc1 [Dabigatran, dabigatran]	10.6	9.45	9.4	142			
CO[C@H]1O[C@H](COS(=O)(=O)O)[C@@H](O[C@@H]2O[C@@H](C(=O)O)[C@@H](O[C@H]3O[C@H](COS(=O)(=O)O)[C@@H](O[C@@H]4O[C@H](C(=O)O)[C@@H](O[C@H]5O[C@H](COS(=O)(=O)O)[C@@H](O)[C@H](O)[C@H]5NS(=O)(=O)O)[C@H](O)[C@H]4O)[C@H](OS(=O)(=O)O)[C@H]3NS(=O)(=O)O)[C@H](O)[C@H]2OS(=O)(=O)O)[C@H](O)[C@H]1NS(=O)(=O)O [Fondaparinux sodium, fondaparinux sodium]	2.36	8.69	8.6		152		
CCCSc1nc(N[C@@H]2C[C@H]2c2ccc(F)c(F)c2)c2nnn([C@@H]3C[C@H](OCCO)[C@@H](O)[C@H]3O)c2n1 [Ticagrelor, ticagrelor]	47.5	5.6			142		
CCC[C@@]1(CCc2ccccc2)CC(O)=C([C@H](CC)c2cccc(NS(=O)(=O)c3ccc(C(F)(F)F)cn3)c2)C(=O)O1 [tipranavir]	7.38						
heparin			106			153	262
